The source made the active and inactive calls. The rule behind the calls is not given here.
System: Leishmania donovani
Assay: Inhibition of 2 units of Leishmania donovani MHOM/IN/1978/UR6 DNA topoisomerase 1-mediated supercoiled pGEM4Z DNA relaxation at 5 to 10 uM preincubated for 10 mins prior to DNA addition by agarose gel electrophoresis

CC[C@@]1(O)C(=O)OCc2c1cc1n(c2=O)Cc2cc3ccccc3nc2-1
Activity: Active
